In US20240059689A1, “PURINE DERIVATIVES AS ANTICANCER AGENTS” (Tango Therapeutics, Inc., priority 2021, published 2024):
pIC50: −log10 of the molar value.

Experiments:
USP1-UAF1 = USP1-UAF1 (Homo sapiens, UniProt O94782); test: Ubiquitin Rhodamine assay of USP1-UAF1 activity; format: biochemical
Experimental: Certain compounds of the disclosure were assessed for USP1-UAF1 activity in a Ubiquitin Rhodamine assay as described in Biology Example 1.

MDA-MB-436 = test: Viability assay, BRCA1 mutant cell line MDA-MB-436; format: cell-based; settings: Homo sapiens, MDA-MB-436, viability, BRCA1 mutant MDA-MB-436; read-out: MDA-MB-436 rel IC50
From the text: (§1) Table 1 also indicates IC50 values in a viability assay for a non-isogenic pair of BRCA1 mutant (column 5-MDA-MB-436) and BRCA1 WT (column 6—HCC1954) cell lines. These values indicate the effect of treatment with compound on cell survival.

HCC1954 = test: Viability assay, BRCA1 WT cell line HCC1954; format: cell-based; settings: Homo sapiens, HCC1954, viability, read-out: HCC1954 rel IC50
From the text: as §1

monoubiquitinated PCNA = test: AlphaLISA assay measuring monoubiquitinated PCNA in MDA-MB-436; format: cell-based; settings: Homo sapiens, MDA-MB-436, monoubiquitinated PCNA, read-out: Alpha Lisa IC50
From the text: Table 1 also indicates IC50 values for exemplary compounds in an AlphaLISA assay measuring monoubiquitinated PCNA in a BRCA1 mutant cell line (MDA-MB-436; column 7).

Chain of USP1-UAF1 (O94782 whole entry): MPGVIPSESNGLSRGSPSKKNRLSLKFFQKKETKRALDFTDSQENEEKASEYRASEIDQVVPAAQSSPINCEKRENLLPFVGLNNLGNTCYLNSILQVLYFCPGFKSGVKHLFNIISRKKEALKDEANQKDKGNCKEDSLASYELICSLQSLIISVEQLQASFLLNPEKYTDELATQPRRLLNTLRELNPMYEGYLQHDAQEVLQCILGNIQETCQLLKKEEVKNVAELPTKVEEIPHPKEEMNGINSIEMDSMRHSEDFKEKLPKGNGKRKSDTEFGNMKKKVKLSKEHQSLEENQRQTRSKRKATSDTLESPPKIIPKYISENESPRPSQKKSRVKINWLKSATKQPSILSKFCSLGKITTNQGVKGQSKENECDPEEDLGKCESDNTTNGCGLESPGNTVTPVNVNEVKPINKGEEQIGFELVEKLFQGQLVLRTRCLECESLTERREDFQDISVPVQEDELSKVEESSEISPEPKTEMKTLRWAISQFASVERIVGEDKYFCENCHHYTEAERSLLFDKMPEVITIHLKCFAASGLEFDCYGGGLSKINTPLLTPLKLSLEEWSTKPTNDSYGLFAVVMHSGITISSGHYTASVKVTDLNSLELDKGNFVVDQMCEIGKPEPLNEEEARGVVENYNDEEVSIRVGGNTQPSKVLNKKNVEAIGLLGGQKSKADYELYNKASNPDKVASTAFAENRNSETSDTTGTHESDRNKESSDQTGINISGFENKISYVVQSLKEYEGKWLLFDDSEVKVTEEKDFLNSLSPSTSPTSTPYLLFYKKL
Chain of USP1-UAF1 (Q8TAF3 whole entry partner): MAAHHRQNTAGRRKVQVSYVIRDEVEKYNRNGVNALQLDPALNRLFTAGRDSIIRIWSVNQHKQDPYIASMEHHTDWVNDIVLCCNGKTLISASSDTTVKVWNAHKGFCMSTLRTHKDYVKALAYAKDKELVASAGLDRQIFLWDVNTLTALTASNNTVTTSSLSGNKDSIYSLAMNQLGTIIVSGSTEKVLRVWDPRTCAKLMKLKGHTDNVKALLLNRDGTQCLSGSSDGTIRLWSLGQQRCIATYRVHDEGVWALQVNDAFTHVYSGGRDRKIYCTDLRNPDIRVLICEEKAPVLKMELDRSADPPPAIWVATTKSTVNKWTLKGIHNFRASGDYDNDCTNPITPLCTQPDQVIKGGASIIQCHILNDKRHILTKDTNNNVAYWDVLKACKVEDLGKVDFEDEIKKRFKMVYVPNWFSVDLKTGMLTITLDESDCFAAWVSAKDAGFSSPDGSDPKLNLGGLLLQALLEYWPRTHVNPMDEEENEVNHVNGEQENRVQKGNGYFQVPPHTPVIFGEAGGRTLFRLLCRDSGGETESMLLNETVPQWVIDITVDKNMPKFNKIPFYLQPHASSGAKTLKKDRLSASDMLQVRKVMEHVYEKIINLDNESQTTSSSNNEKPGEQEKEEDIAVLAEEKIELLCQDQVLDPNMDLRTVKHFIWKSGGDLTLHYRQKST

SMILES | pIC50 (USP1-UAF1) | pIC50 (MDA-MB-436) | pIC50 (HCC1954) | pIC50 (monoubiquitinated PCNA)
COCCn1c(=N)n(Cc2ccc(-c3nc(C(F)(F)F)cn3C)cc2)c2nc(-c3c(OC)ncnc3C3CC3)ncc21 [Example T-134, 2-(4-cyclopropyl-6-methoxy-pyrimidin-5-yl)-7-(2-methoxyethyl)-9-[[4-[1-methyl-4-(trifluoromethyl)imidazol-2-yl]phenyl]methyl]purin-8-imine] | 5.00 to 7.00 | 6.60 to 7.00 | ≤ 5.00 | 5.00 to 6.60
[2H]C([2H])([2H])Oc1ncnc(C2CC2)c1-c1ncc2c(n1)n(Cc1ccc(-c3nc(C(F)(F)F)cn3C(C)C)cc1)c(=N)n2CC(F)(F)F [Example T-135, 2-[4-cyclopropyl-6-(trideuteriomethoxy)pyrimidin-5-yl]-9-[[4-[1-isopropyl-4-(trifluoromethyl)imidazol-2-yl]phenyl]methyl]-7-(2,2,2-trifluoroethyl)purin-8-imine] | 7.00 to 7.52 | > 7.00 | ≤ 5.00 | 6.60 to 7.00
COc1ccnc(C2CC2)c1-c1ncc2c(n1)n(Cc1ccc(-n3nc(C(F)(F)F)cc3OC)cc1)c(=N)n2CC(F)(F)F [Example T-136, 2-(2-cyclopropyl-4-methoxy-3-pyridyl)-9-[[4-[5-methoxy-3-(trifluoromethyl)pyrazol-1-yl]phenyl]methyl]-7-(2,2,2-trifluoroethyl)purin-8-imine] | 7.00 to 7.52 | 6.60 to 7.00 | ≤ 5.00 | 6.60 to 7.00
COc1ncnc(C2(C)CC2)c1-c1ncc2c(n1)n(Cc1ccc(-c3nc(C(F)(F)F)cn3C)cc1)c(=N)n2CC(F)(F)F [Example T-137, 2-[4-methoxy-6-(1-methylcyclopropyl)pyrimidin-5-yl]-9-[[4-[1-methyl-4-(trifluoromethyl)imidazol-2-yl]phenyl]methyl]-7-(2,2,2-trifluoroethyl)purin-8-imine] | 5.00 to 7.00 | 6.60 to 7.00 | ≤ 5.00 | 6.60 to 7.00
CCOc1cc(C(F)(F)F)nn1-c1ccc(Cn2c(=N)n(CC(F)(F)F)c3cnc(-c4c(C(F)(F)F)cnn4C)nc32)cc1 [Example T-138, 9-[[4-[5-ethoxy-3-(trifluoromethyl)pyrazol-1-yl]phenyl]methyl]-2-[2-methyl-4-(trifluoromethyl)pyrazol-3-yl]-7-(2,2,2-trifluoroethyl)purin-8-imine] | 7.00 to 7.52 | 6.60 to 7.00 | 5.00 to 6.60 | 6.60 to 7.00
CCn1c(=N)n(Cc2ccc(-c3nc(C(F)(F)F)cn3C)cc2)c2nc(-c3c(OC)ncnc3C3CC3)ncc21 [Example T-139, 2-(4-cyclopropyl-6-methoxy-pyrimidin-5-yl)-7-ethyl-9-[[4-[1-methyl-4-(trifluoromethyl)imidazol-2-yl]phenyl]methyl]purin-8-imine] | 7.00 to 7.52 | > 7.00 | ≤ 5.00 | > 7.00
Cn1cc(C(F)(F)F)nc1-c1ccc(Cn2c(=N)n(C)c3cnc(-c4c(OC(F)(F)F)ccnc4C4CC4)nc32)cc1 [Example T-140, 2-[2-cyclopropyl-4-(trifluoromethoxy)-3-pyridyl]-7-methyl-9-[[4-[1-methyl-4-(trifluoromethyl)imidazol-2-yl]phenyl]methyl]purin-8-imine] | 7.00 to 7.52 | > 7.00 | ≤ 5.00 | > 7.00
COc1nccc(C2CC2)c1-c1ncc2c(n1)n(Cc1ccc(-c3nc(C(F)(F)F)cn3C)cc1)c(=N)n2CC(F)(F)F [Example T-141, 2-(4-cyclopropyl-2-methoxy-3-pyridyl)-9-[[4-[1-methyl-4-(trifluoromethyl)imidazol-2-yl]phenyl]methyl]-7-(2,2,2-trifluoroethyl)purin-8-imine] | 5.00 to 7.00 | 6.60 to 7.00 | ≤ 5.00 | 6.60 to 7.00
COc1ncnc(C2CC2)c1-c1ncc2c(n1)n([C@@H](C)c1ccc(-c3nc(C(F)(F)F)cn3C)cc1)c(=N)n2C [Example T-142, 2-(4-cyclopropyl-6-methoxy-pyrimidin-5-yl)-7-methyl-9-[(1S)-1-[4-[1-methyl-4-(trifluoromethyl)imidazol-2-yl]phenyl]ethyl]purin-8-imine] | 5.00 to 7.00 | 6.60 to 7.00 | ≤ 5.00 | 6.60 to 7.00

Further lines, results first:

pIC50 (USP1-UAF1) | pIC50 (MDA-MB-436) | pIC50 (HCC1954) | pIC50 (monoubiquitinated PCNA) | SMILES
7.00 to 7.52 | > 7.00 | ≤ 5.00 | > 7.00 | COc1ncnc(C2CC2)c1-c1ncc2c(n1)n([C@H](C)c1ccc(-c3nc(C(F)(F)F)cn3C)cc1)c(=N)n2CC(F)(F)F [Example T-143, (R)-2-(4-cyclopropyl-6-methoxypyrimidin-5-yl)-9-(1-(4-(1-methyl-4-(trifluoromethyl)-1H-imidazol-2-yl)phenyl)ethyl)-7-(2,2,2-trifluoroethyl)-7,9-dihydro-8H-purin-8-imine]
7.00 to 7.52 | 6.60 to 7.00 | ≤ 5.00 | 6.60 to 7.00 | COc1ncnc(C(F)(F)F)c1-c1ncc2c(n1)n(Cc1ccc(-c3nc(C(F)(F)F)cn3C)cc1)c(=N)n2CC(F)(F)F [Example T-144, 2-[4-methoxy-6-(trifluoromethyl)pyrimidin-5-yl]-9-[[4-[1-methyl-4-(trifluoromethyl)imidazol-2-yl]phenyl]methyl]-7-(2,2,2-trifluoroethyl)purin-8-imine]
7.00 to 7.52 | 6.60 to 7.00 | 5.00 to 6.60 | > 7.00 | COc1ncnc(C(F)(F)F)c1-c1ncc2c(n1)n(Cc1ccc(-n3nc(C(F)(F)F)cc3OC)cc1)c(=N)n2CC(F)(F)F [Example T-145, 9-[[4-[5-methoxy-3-(trifluoromethyl)pyrazol-1-yl]phenyl]methyl]-2-[4-methoxy-6-(trifluoromethyl)pyrimidin-5-yl]-7-(2,2,2-trifluoroethyl)purin-8-imine]
7.00 to 7.52 | > 7.00 | ≤ 5.00 | > 7.00 | COc1nc(C)nc(C2CC2)c1-c1ncc2c(n1)n(Cc1ccc(-c3nc(C(F)(F)F)cn3C)cc1)c(=N)n2C [Example T-146, 2-(4-cyclopropyl-6-methoxy-2-methyl-pyrimidin-5-yl)-7-methyl-9-[[4-[1-methyl-4-(trifluoromethyl)imidazol-2-yl]phenyl]methyl]purin-8-imine]
7.00 to 7.52 | 6.60 to 7.00 | ≤ 5.00 | > 7.00 | Cn1cc(C(F)(F)F)nc1-c1ccc(Cn2c(=N)n(CC(F)(F)F)c3cnc(-c4c(OCF)ncnc4C4CC4)nc32)cc1 [Example T-147, 2-[4-cyclopropyl-6-(fluoromethoxy)pyrimidin-5-yl]-9-[[4-[1-methyl-4-(trifluoromethyl)imidazol-2-yl]phenyl]methyl]-7-(2,2,2-trifluoroethyl)purin-8-imine]
